Experimental findings from paper PMC7213079, “Hit Identification of New Potent PqsR Antagonists as Inhibitors of Quorum Sensing in Planktonic and Biofilm Grown Pseudomonas aeruginosa” (Frontiers in Chemistry, 2020) are described below.

Entries after “also recorded” stand apart in the source; their conditions may differ.

Holding throughout (type): cell-based, Pseudomonas aeruginosa
One test has as its system PAO1-L biofilm cultures. The test is described as follows: AQ quantification in biofilm cultures. As to conditions: M9 minimal medium, 10 μM, 18 h, versus DMSO control. An excerpt: Biofilms are a major challenge in the treatment of chronic P. aeruginosa infections because of their resilience and protection of bacteria from environmental stresses such as those posed by the host immune system and antimicrobial agents (Flemming et al., [2007]; Rybtke et al., [2015]). Many genes that are involved in biofilm formation are directly linked to pqs QS signaling (Rampioni et al., [2016]; Lin et al., [2018]). To evaluate the effect of 40 on AQ signaling in biofilm cultures, PAO1-L was grown in M9 minimal medium and challenged with either DMSO control or of 40 (10 μM). Following incubation and cell removal, supernatants were subjected to LC/MS-MS analysis.
Figure 6 Quantification of AQ concentrations in PAO1-L biofilm cultures treated with 40 (10 μM). […] Biofilms were grown in M9 minimal medium for 18 h in 24-well glass bottom plates and supernatants extracted for AQ analysis. […]
(§1) screening of the LC eluent for specific AQ analytes. Where chromatographic peaks for HHQ and PQS were detected, a peak area was determined and analyte peak area/internal standard peak area calculated.
(§2) AQ quantification in biofilm cultures: […]
(§3) For this experiment, the P. aeruginosa PAO1-L strain and M9 minimal medi um were used. […] The supernatant was col lected and the AQ extraction and quantification were performed following the LC MS/MS protocol described above . […]

The subject of test [1] is PA14. The test is described as follows: Pyocyanin quantification, PA14. As to conditions: PA14, compound at 3 x IC50, 16 h, compared with the control. From the text: Pyocyanin is an important virulence factor for P. aeruginosa infections and in particular respiratory and urinary tract infections. Pyocyanin is a redox-active phenazine the production of which is regulated via PqsR and PqsE (Hall et al., [2016]; Rampioni et al., [2016]; Higgins et al., [2018]). Therefore, pyocyanin production serves as an indirect readout of the activity of the pqs QS system. […] Compound 40 reduced pyocyanin production by over 80% in both strains in agreement with bioreporter assay results.
Figure 4 Pyocyanin production by Pseudomonas aeruginosa after treatment with pqs inhibitors 8, 14, 23, 34, 25, 26, and 40. Quantification of pyocyanin production after inhibitor treatment at 3 × IC50 for both PAO1-L and PA14. The graph represents the average of three independent experiments carried out in triplicate (n = 9).
PAO1-L Wild type PAO1, Lausanne subline. B.
PAO1-L mCTX::PpqsA- PAO1-L with chromosomal mini-CTX::PpqsA-lux (Soukarieh lux insertion; TcR et al., 2018)
PA14 Wild type UCBPP-PA14 (Rahme et
PA14 mCTX::PpqsA-lux PA14 with chromosomal mini-CTX::PpqsA-lux (Soukarieh insertion; TcR et al., 2018) […]
Pyocyanin quantification: […]
Pyocyanin pigment was extracted into chloroform by mixing 7.5 mL of supernatant with 4.5 mL of chloroform. Pyocyanin w as further extracted into 1.5 mL of 0.2 M HCL which gave a pink/red solution and the absorbance was measured at 520 nm.

Test [2] has as its system PA14. The test is described as follows: AQ (HHQ, PQS) quantification by LC-MS/MS in planktonic cultures, PA14. As to conditions: 3 x IC50. As to the method: Since PqsR controls expression of the pqsABCDE operon encoding the enzymes required for different stages of AQ biosynthesis, quantification of HHQ, and PQS provides a direct measurement for inhibition of the biosynthetic pathway. Compound 40 was evaluated for its effect on AQ biosynthesis at a concentration three times the corresponding IC50 values for PAO1-L and PA14.
Figure 5 Effect of compound 40 on AQ production: Quantification of AQ concentrations after treatment with the PqsR inhibitor 40 at 3x IC50 value for PAO1-L and PA14 each strain. The graph represents the average of three independent experiments carried out in triplicate (n = 9) for both strains.
For each test sample, 100µl of sterile filtered supernatant (the same preparation as for pyocyanin) was spiked with 10µl of an internal standard solution (10µM d4-PQS in MeOH), and diluted with water to a total volume of 500µl. […]
as §1, §2, §3

`Cn1c2ccccc2c2nnc(SCC(=O)Nc3ccc(Oc4ccccn4)cc3)nc21` [Compound 40, 2-((5-Methyl-5H-[1,2,4]triazino[5,6-b]indol-3-yl)thio)-N-(4-(pyridin-2-yloxy)phenyl)acetamide]: in the test with PAO1-L biofilm cultures, the “biosynthesis of AQ signals in biofilm cultures” value is “effectively inhibit; also recorded: drastically reduced”. Further, the “inhibition of pyocyanin production” value with PA14 [1] is listed as “over 80%”. Also, in the test on PA14 [2], the “production of HHQ and PQS” value is given as “substantially reduce”.
